The subject of test [1] is F21T (DNA, G4) GGGTTAGGGTTAGGGTTAGGG
Nature of the test: FRET melting. To be noted: 10 mM Li cacodylate, ligand 5 μM, DNA 0.2 μM.

In test [2] the test system is telo23 (DNA, G4) TAGGGTTAGGGTTAGGGTTAGGG
Nature of the test: UV/Vis titration. Particulars: K+ (100 mM potassium phosphate), pH 7.4, ligand 10 μM; for K d: apparent, independent and equivalent sites.

The subject of test [3] is F10T (DNA, hairpin, hexaethylene glycol (HEG) linker between nucleotides 10 and 11) TATAGCTATATATAGCTATA
Nature of the test: FRET melting. To be noted: 10 mM KCl, 90 mM LiCl; 10 mM Li cacodylate; ligand 5 μM; DNA 0.2 μM.

In test [4] the test system is FmycT (DNA, G4) TTGAGGGTGGGTAGGGTGGGTAA
Nature of the test: FRET melting. To be noted: 1 mM KCl, 99 mM LiCl; 10 mM Li cacodylate; ligand 5 μM; DNA 0.2 μM.

In test [5] the test system is telo23 (DNA, G4) TAGGGTTAGGGTTAGGGTTAGGG
The test is described as follows: 1H imino NMR titration. Particulars: 20 mM potassium phosphate, 70 mM KCl; pH 7.0, 298 K, 90% H2O/10% D2O; DNA 185 μM.

For test [6], the system named is Febr1T (DNA, G4) GGGCAGGGGGTGATGGGGAGGAGCCAGGG
The test is described as follows: FRET melting. To be noted: 10 mM KCl, 90 mM LiCl; 10 mM Li cacodylate; ligand 5 μM; DNA 0.2 μM.

Five compounds from publication PMC7318697 (2020) can be followed below.

Take `CN1CCN(CCCNc2ccc3c(c2)/C(=C2/CCc4ccc(NCCCN5CCN(C)CC5)cc42)CC3)CC1`: the ΔT m in test [1] (10 mM KCl, 90 mM LiCl) amounted to 0 °C; in test [1] (100 mM NaCl), 0 °C; in test [3], 0 °C; in test [4], 0 °C. The binding entry in test [2] (Kd too weak for accurate determination) is “weak”.
As to `CN1CCN(CCCNc2ccc3c(c2)/C(=C2\CCc4ccc(NCCCN5CCN(C)CC5)cc42)CC3)CC1`, the ΔT m in test [1] (10 mM KCl, 90 mM LiCl) was determined as 6 °C. Moreover, in test [2], the K d turned out to be 70 µM.
As to `C[n+]1ccc(-c2ccc3c(c2)/C(=C2/CCc4ccc(-c5cc[n+](C)cc5)cc42)CC3)cc1`, the K d in test [2] came to 70 µM. Also, the binding result in test [5] is “yes”. The compound further showed a ΔT m in test [6] of 9 °C.
`C[n+]1ccc(-c2ccc3c(c2)/C(=C2\CCc4ccc(-c5cc[n+](C)cc5)cc42)CC3)cc1`: in test [5], the binding result was “yes”. This compound gave a ΔT m in test [6] of 22 °C.
`C[n+]1ccc(-c2ccc3c(c2)CC/C3=C2/CCc3cc(-c4cc[n+](C)cc4)ccc32)cc1`: the ΔT m in test [1] (10 mM KCl, 90 mM LiCl) amounted to 28 °C; in test [1] (100 mM NaCl), 19 °C; in test [3], 3 °C; in test [6], 17 °C; in test [4], 30 °C. Besides, in test [2], the K d came out at 2 µM. Also, in test [5], the binding entry is reported as “yes”.
